# Laboratory results reported in ChEMBL document CHEMBL3864152, “Discovery of ursolic acid prodrug (NX-201): Pharmacokinetics and in vivo antitumor effects in PANC-1 pancreatic cancer” (Bioorg Med Chem Lett, 2016).
# The source made the active and inactive calls. The calls are words filed in the database; no cut-off is given here.
# Columns and labels:
# [1] = Tmax in rat at 25 mg/kg, po; format: ADME, organism-based; conditions: in vivo
# [2] = Cmax in rat at 25 mg/kg, po; format: ADME, organism-based; set-up: dose 25 mg/kg, route oral; conditions: in vivo
# [3] = AUC in rat at 25 mg/kg, po; format: ADME, organism-based; conditions: in vivo
# [4] = Half life in rat at 25 mg/kg, po; format: ADME, organism-based; conditions: in vivo
# [5] = Oral bioavailability in rat at 25 mg/kg; format: ADME, organism-based; conditions: in vivo
# [6] = tested on: PANC-1; experiment: Antitumor activity against human PANC1 cells xenografted in po dosed non-obese diabetic […] SCID mouse assessed as tumor growth inhibition administered daily for 4 weeks; format: functional, organism-based
# [7] = tested on: PANC-1; experiment: Antitumor activity against human PANC1 cells xenografted in non-obese diabetic […] SCID mouse assessed as tumor growth inhibition at 50 mg/kg, po administered daily measured after 3 weeks in presence of gemcitabine; format: functional, organism-based
# [8] = tested on: Mus musculus; experiment: Toxicity in non-obese diabetic […] SCID mouse xenografted with human PANC1 cells assessed as change in body weight at 25 to 100 mg/kg, po administered daily for 4 weeks; format: organism-based, PANC-1; conditions: in vivo, 672 h
# [9] = tested on: Mus musculus; experiment: Toxicity in non-obese diabetic […] SCID mouse xenografted with human PANC1 cells assessed as change in body weight at 50 mg/kg, po administered daily for 4 weeks in presence of gemcitabine; format: organism-based, PANC-1; conditions: in vivo, 672 h
# [10] = Dissociation constant, pKa of the compound; format: physicochemical
# [11] = Tmax in rat at 0.5 mg/kg, iv; format: ADME, organism-based; conditions: in vivo
# [12] = AUC in rat at 0.5 mg/kg, iv; format: ADME, organism-based; conditions: in vivo
# [13] = Half life in rat at 0.5 mg/kg, iv; format: ADME, organism-based; conditions: in vivo
# [14] = tested on: Mus musculus; experiment: Toxicity in non-obese diabetic […] SCID mouse xenografted with human PANC1 cells assessed as change in body weight at 50 mg/kg, po administered daily for 4 weeks; format: organism-based, PANC-1; conditions: in vivo, 672 h
# [15] = in vivo; conditions: rat, iv, 0.5 mg/kg
# Description: Cmax in rat at 0.5 mg/kg, iv
# [16] = tested on: PANC-1; experiment: Antitumor activity against human PANC1 cells xenografted in non-obese diabetic […] SCID mouse assessed as tumor growth inhibition at 40 mg/kg, iv administered 2 times per week for 4 weeks; format: functional, organism-based
# [17] = tested on: Mus musculus; experiment: Toxicity in non-obese diabetic […] SCID mouse xenografted with human PANC1 cells assessed as change in body weight at 40 mg/kg, iv administered 2 times per week for 4 weeks; format: organism-based, PANC-1; conditions: in vivo, 672 h
# [18] = Oral bioavailability in Sprague-Dawley rat at 25 mg/kg; format: ADME, organism-based; conditions: in vivo
smiles,measurement,setting,value
Cc1oc(=O)oc1COC(=O)[C@]12CC[C@@H](C)[C@H](C)[C@H]1C1=CC[C@@H]3[C@@]4(C)CC[C@H](O)C(C)(C)[C@@H]4CC[C@@]3(C)[C@]1(C)CC2,Tmax,[1],87.6 min
same,Cmax,[2],30.3 ng/mL
same,AUC,[3],132 ng·h/mL
same,half-life,[4],283 min
same,bioavailability,[5],2.3%
same,TGI,[6],Dose-dependent effect
same,TGI,[7],Active
same,Activity,[8],Non-Toxic
same,Activity,[9],Non-Toxic
C[C@H]1[C@H](C)CC[C@]2(C(=O)O)CC[C@]3(C)C(=CC[C@@H]4[C@@]5(C)CC[C@H](O)C(C)(C)[C@@H]5CC[C@]43C)[C@H]12 [URSOLIC ACID],pKa,[10],5.29
same,Tmax,[11],4.8 min
same,Tmax,[1],15 min
same,Cmax,[2],1.9 ng/mL
same,AUC,[12],114 ng·h/mL
same,AUC,[3],0.6 ng·h/mL
same,half-life,[13],93 min
same,half-life,[4],18 min
same,bioavailability,[5],< 0.01%
same,Activity,[14],Non-Toxic
same,Cmax,[15],378 ng/mL
Nc1ccn([C@@H]2O[C@H](CO)[C@@H](O)C2(F)F)c(=O)n1 [GEMCITABINE],TGI,[16],Active
same,Activity,[17],Non-Toxic
CC1(C)CC[C@]2(C(=O)O)CC[C@]3(C)C(=CC[C@@H]4[C@@]5(C)CC[C@H](O)C(C)(C)[C@@H]5CC[C@]43C)[C@@H]2C1 [OLEANOLIC_ACID],bioavailability,[18],0.7%
